“Also recorded” adds a separate entry of the source.
Columns and labels:
caspase-1 = target: T1, caspase-1 (Homo sapiens, UniProt P29466); test: Cell-free biochemical caspase-1 assay
T1 construct: Reaction Biology Corporation (assay run there as a service)
T1 sequence (P29466 120-297 limits assumed): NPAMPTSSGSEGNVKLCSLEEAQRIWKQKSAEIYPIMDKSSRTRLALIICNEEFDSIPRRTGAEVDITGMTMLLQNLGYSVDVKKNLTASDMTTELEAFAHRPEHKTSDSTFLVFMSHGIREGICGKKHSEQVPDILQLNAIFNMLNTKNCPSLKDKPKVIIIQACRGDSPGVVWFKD
T1 sequence (P29466 317-404 limits assumed): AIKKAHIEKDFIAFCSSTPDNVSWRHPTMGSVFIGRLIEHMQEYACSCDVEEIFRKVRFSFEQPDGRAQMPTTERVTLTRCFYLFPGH
Procedure: Cell viability was determined by addition of an equal volume of CellTiter-Glo® 2.0 reagent (Promega) to the remaining cells/supernatant in each well. Intracellular Caspase-1 activity was measured using the Caspase-Glo® assay (Promega) according to the manufacturer’s instructions. The biochemical capsase-1 assay was conducted at Reaction Biology Corporation (Malvern, USA). Human IL-1β, IL-1α, and TNFα and mouse IL-1β were measured in cell culture supernatants using homogeneous time resolved fluorescence assay kits (HTRF, Cisbio, Codolet, France). Human IL-18 was measured in cell culture supernatants using an ELISA kit (R&D Systems, Minneapolis, MN, USA). Plasma IL-1β concentrations were determined by Quantikine® ELISA (R&D Systems, Minneapolis, MN).

[1] = Pharmacokinetics in male Sprague–Dawley rats after i.v. and p.o. administration; format: in vivo
Procedure: The pharmacokinetics (PK) of JT002 were assessed in male Sprague–Dawley rats and male Beagle dogs after intravenous (i.v.) and oral (p.o.) administration (Table 2). […] In dogs, a maximum drug plasma concentration (Cmax) of 4.0 µg/mL (9 µM) was reached 1 h after a single 1 mg oral dose. Dose-adjusted exposures (dose-adjusted AUC) from oral administration were close to identical between rat and dog (11.8 versus 11.6) (Table 2).

NLRP3 inflammasome = NLRP3 inflammasome (Mus musculus, UniProt Q8R4B8); test: In vivo target engagement: ex vivo LPS + ATP stimulated IL-1β production in blood of orally dosed mice; settings: single oral dose 25 mg/kg
Procedure: In vivo pharmacodynamics (PD) were evaluated in mice for determination of target engagement as this species is routinely used for assessment of preclinical efficacy. Treatment of fresh, whole blood with LPS plus ATP results in the NLRP3-dependent release of IL-1β, thus providing a robust method for tracking target engagement of NLRP3 inflammasome inhibitors in the circulation after oral dose administration[36],[47]. In vivo target engagement using ex vivo stimulation of blood was evaluated in mice at various times after oral dosing of JT002. For each time point tested, one group of mice received a single oral dose of 25 mg/kg JT002 (n = 8/group) and another group received the vehicle control (n = 8/group). At the time of harvest, blood was collected from each animal and an aliquot removed and processed to plasma for determination of JT002 concentrations. The remaining blood was stimulated ex vivo with LPS plus ATP followed by analysis of IL-1β concentrations (Fig. 3A). […] Consistent with these findings, plasma concentrations of JT002 decreased over time, with mean concentrations of ≥ 4.0 µM through 8 h and a mean concentration of 6 nM at the 24-h sampling (Fig. 3C,D). […]

[2] = Rat, single 5 mg oral dose, sodium salt form
[3] = male, Sprague-Dawley, plasma, iv, Rat, 1 mg/kg
[4] = male, Sprague-Dawley, plasma, po, Rat, 5 mg/kg

Sequence of NLRP3 inflammasome (Q8R4B8 whole entry): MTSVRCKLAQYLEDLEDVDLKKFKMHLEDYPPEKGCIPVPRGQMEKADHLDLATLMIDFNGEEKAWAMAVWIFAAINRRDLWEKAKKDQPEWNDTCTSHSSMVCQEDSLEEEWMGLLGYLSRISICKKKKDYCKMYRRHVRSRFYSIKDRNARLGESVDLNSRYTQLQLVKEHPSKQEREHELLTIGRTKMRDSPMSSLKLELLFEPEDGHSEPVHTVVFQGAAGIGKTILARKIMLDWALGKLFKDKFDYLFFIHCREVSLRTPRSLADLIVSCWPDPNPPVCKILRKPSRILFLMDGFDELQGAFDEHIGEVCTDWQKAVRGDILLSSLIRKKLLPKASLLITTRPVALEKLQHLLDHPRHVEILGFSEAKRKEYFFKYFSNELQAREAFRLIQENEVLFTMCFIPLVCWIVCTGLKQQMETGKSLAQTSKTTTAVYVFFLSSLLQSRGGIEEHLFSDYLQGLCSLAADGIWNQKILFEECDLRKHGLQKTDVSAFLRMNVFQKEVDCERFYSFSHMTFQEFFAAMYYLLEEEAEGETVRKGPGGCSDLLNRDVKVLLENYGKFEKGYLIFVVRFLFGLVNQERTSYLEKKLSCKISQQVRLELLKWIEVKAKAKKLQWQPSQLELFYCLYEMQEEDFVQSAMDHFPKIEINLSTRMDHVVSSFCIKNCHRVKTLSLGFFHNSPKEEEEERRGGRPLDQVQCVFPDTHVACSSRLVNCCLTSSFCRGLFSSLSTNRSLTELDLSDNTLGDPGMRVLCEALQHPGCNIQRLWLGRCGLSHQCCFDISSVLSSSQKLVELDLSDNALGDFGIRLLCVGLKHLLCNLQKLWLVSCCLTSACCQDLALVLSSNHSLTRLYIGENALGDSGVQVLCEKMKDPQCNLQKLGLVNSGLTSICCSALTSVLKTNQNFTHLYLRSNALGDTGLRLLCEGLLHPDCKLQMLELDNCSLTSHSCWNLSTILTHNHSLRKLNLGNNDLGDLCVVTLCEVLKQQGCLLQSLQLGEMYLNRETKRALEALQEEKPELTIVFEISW

CO[C@@H]1COc2c(S(=O)(=O)NC(=O)Nc3c4c(cc5c3CCC5)CCC4)cnn2C1 [JT002]
direct inhibition of caspase-1 enzymatic activity (caspase-1): not a direct inhibitor of caspase-1 enzymatic activity
%F (oral bioavailability) ([1]; Rat, p.o., 5 mg/kg, sodium salt form): 73.2%
maximum plasma concentration [1, 2]: 36 µM
time of maximum plasma concentration [1, 2]: thirty
AUC [1, 3]: 16200 ng·h/mL
Cmax [1, 3]: 10600 ng/mL
half-life [1, 3]: 2.8 h
clearance ([1]; male, Sprague-Dawley, plasma, iv, Rat, i.v., 1 mg/kg, read-out: Clpl (plasma clearance)): 1 mL/min/kg
Vd ([1]; male, Sprague-Dawley, plasma, iv, Rat, i.v., 1 mg/kg, read-out: Vss): 0.2 L/kg
AUC [1, 4]: 59200 ng·h/mL
Cmax [1, 4]: 15600 ng/mL
half-life [1, 4]: 3.4 h
Tmax ([1]; male, Sprague-Dawley, plasma, po, Rat, 5 mg/kg, median): 0.5 h
bioavailability ([1]; male, Sprague-Dawley, rat, plasma, po, 5 mg/kg, p.o., 5 mg/kg, sodium salt form, read-out: %F (oral bioavailability)): 73%
inhibition at 25 mg/kg (NLRP3 inflammasome; mouse, 4- and 8-h post-dosing): ≥ 97%
inhibition of ex vivo stimulated IL-1β production (NLRP3 inflammasome; 24-h post-dosing, 25 mg/kg): no significant inhibition; also recorded: lack of inhibition
